Values joined by “and” are separate entries in the source; they are usually repeats but may differ in a detail not shown here. Identical values can stand only once.
Key:
PLK4 (h) = PLK4 (h) (Homo sapiens, UniProt O00444); assay: PLK-4 human kinase assay (SPA); type: biochemical; conditions: for IC50: read-out: PLK4 pIC50 (converted)
Description: (§1) The in vitro inhibition of a panel of kinases was assessed using either the scintillation proximity assay (SPA) as described by Cook, N. D. et al., Advances in Experimental Medicine and Biology (1991), 36; p. 525-528; or the Fluorescence Resonance Energy Transfer (FRET) technology as described by Rodems, S. M. et al., Assay Drug Develop. Technol. (2002), 1; p. 9-19.
(§2) In the SPA technology the activity of the kinase of interest is measured using an appropriate biotinylated substrate that is incubated with the aforementioned kinase protein in the presence of (^33P) radiolabeled ATP. (^33P) Phosporylation of the substrate is subsequently measured through binding of the phosphorylated substrate to streptavidine coated beads that are based on the scintillant poly(vinyl toluene) (PVT-Beads). The scintillation intensity is detected by imaging on Leadseeker.
(§3) All kinases are pre-diluted to a 10× working concentration prior to addition into the assay. The composition of the dilution buffer for each kinase is detailed below.
In a final reaction volume of 30 μl PLK4 (h) (19 μg/ml) is incubated with 50 mM Hepes pH 8.0, 10 mM MgCl2, 50 mM NaCl, 1 mM NaF, 1 mM DTT, 10 μM of peptide Biotin-RPRGQRDSSYYWE-OH, 1 μM ATP and 2 nM [γ-^33P-ATP] (6.0 μCi/ml). After incubation of 60 minutes at room temperature, the reaction is stopped by addition of 40 μl, of stop solution containing 8.7 mM EDTA, BSA 0.17%, 0.17% Triton X-100, 1.7 mg/ml SPA beads (GE-healthcare). The plate is centriguged and read for Scintillation imaging on Leadseeker.

PC-3 = assay: Cellular proliferation assay (Alamar blue), PC-3; type: cell-based; conditions: PC-3 cells, 72 hours with compound, 10% FCS; for IC50: Homo sapiens, PC-3, 72 h, read-out: pIC50 PC-3 (converted)
Description: (§4) […] functional properties of these compounds was tested in cellular proliferation assays on a panel of different cell lines in the presence of 10% FCS serum (37° C. and 5% (v/v) CO2). In a first step these cells were seeded and incubated for 24 hours in the absence of compound. In the second step the cells were incubated for 72 hours with the compounds to be tested for 72 hours. The viable cell number was finally assessed in a standard Alamar blue cell viability assay.
(§5) The viable cell number was assessed by incubation for either 4 h (HCT-116, H1299, H460) 6 h (SKOV3, HT29, U87-MG, Colo205) or 24 h (A2780, PC3, MDA-MB-231, A549, MCF-7) with Alamar blue (Resazurin 9 μg/ml, K-Ferrocyanide 90 μM K-Ferricyanide 90 μM) and the converted fluorescent product was quantified on a fluorescent plate readed (544 nm/590 nm). Effect of the compounds is calculated as of on control cells.

AuroraB (h) = AuroraB (h) (Homo sapiens, UniProt Q96GD4); assay: Aurora-B human kinase assay (SPA); type: biochemical; conditions: for IC50: read-out: AuroraB pIC50 (converted)
Chain of AuroraB (h) (Q96GD4 whole entry): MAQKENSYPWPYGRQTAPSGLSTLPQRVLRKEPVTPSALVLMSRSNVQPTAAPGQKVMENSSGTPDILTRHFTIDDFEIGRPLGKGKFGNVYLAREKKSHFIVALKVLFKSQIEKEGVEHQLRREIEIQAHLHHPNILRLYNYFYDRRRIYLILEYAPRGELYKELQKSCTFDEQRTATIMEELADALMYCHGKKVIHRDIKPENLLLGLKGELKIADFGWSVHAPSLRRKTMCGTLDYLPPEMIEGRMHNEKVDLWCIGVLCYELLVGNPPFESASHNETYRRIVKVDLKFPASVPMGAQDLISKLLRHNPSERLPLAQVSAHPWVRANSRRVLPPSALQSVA
Description: as §1, §2, §3
In a final reaction volume of 30 μl, AuroraB (h) (0.5 μg/ml) is incubated with 60 mM Hepes pH 7.5, 3 mM MgCl2, 3 mM MnCl2, 3 μM Na3VO4, 0.05 mg/ml PEG, 2 mM DTT, 3 μM Biotin-[…]-OH, 0.5 μM ATP and 2.2 nM [γ-^33P-ATP] (6.8 μCi/ml). After incubation of 60 minutes at room temperature, the reaction is stopped by addition of 40 μL of stop solution containing 8.7 mM EDTA, BSA 0.17%, 0.17% Triton X-100, 5 mg/ml SPA beads (GE-healthcare). The plate is centriguged and read for Scintillation imaging on Leadseeker.

A2780 = assay: Cellular proliferation assay (Alamar blue), A2780; type: cell-based; conditions: A2780 cells, 72 hours with compound, 10% FCS; for IC50: Homo sapiens, A2780, 72 h, read-out: pIC50 A2780 (converted)
Description: as §4, §5

CDK1/CyclinB (h) = CDK1/CyclinB (h) (Homo sapiens, UniProt P06493); assay: CDK1/CyclinB human kinase assay (FRET); type: biochemical; conditions: for IC50: read-out: CDK1 pIC50 (converted)
Chain of CDK1/CyclinB (h) (P06493 whole entry): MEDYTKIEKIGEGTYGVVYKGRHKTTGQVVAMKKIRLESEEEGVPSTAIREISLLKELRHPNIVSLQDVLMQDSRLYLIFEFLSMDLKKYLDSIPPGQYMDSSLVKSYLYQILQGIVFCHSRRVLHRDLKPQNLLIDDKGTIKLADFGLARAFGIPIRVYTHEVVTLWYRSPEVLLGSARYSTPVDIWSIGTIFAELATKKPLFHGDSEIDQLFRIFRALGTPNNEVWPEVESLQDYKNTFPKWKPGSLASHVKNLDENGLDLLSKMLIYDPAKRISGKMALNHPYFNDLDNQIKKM
Chain of CDK1/CyclinB (h) (P14635 whole entry partner): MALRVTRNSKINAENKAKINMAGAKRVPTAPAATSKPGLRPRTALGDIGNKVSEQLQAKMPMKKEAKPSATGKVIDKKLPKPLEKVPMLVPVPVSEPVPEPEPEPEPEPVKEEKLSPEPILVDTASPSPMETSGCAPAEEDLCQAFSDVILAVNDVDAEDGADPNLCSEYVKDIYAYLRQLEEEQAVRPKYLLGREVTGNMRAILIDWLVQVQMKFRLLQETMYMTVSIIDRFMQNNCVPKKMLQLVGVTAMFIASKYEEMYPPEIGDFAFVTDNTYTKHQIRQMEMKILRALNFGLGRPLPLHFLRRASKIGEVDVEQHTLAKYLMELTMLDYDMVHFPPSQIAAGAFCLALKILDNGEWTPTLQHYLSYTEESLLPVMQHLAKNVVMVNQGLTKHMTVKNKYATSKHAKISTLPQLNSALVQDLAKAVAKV
Description: as §1
In the FRET technology the activity of the kinase of interest is measured using an appropriate substrate that is labeled with two fluorophores (coumarin and fluorescein). Phosphorylation is determined using a developing reagent comprising a protease that recognizes and cleaves nonphosphorylated peptides. Cleavage will disturb the FRET between the fluorescein and coumarin on the peptide. Uncleaved, phosphorylated peptides maintain the FRET signal. A ratiometric readout of the donor emission over the acceptor emission quantitates the reaction process.
as §3
In a final reaction volume of 10 μl, CDK1/CyclinB (h) (0.2 μg/ml) is incubated with 50 mM Hepes pH 7.5, 10 mM MgCl2, 1 mM EGTA, 0.01% Brij-35, 2 μM Z'lyte Ser/Thr peptide 12 and 10 μM ATP (Invitrogen's FRET assay). After incubation of 60 minutes at room temperature, the reaction is stopped by addition of 5 μL development reagent containing protease mix. After 60 minutes room temperature the development reaction is stopped by adding 5 μl stop solution. The plate is then read in fluorescence plate reader with excitation: 390 nm and dual emission: 460 and 538 nm. Emission ratio is determined to the formula=Emission signal intensity at 460 nm/Emission signal intensity at 538 nm.

GSK3β (h) = GSK3β (h) (Homo sapiens, UniProt P49841); assay: GSK-3β human kinase assay (SPA); type: biochemical; conditions: for IC50: read-out: GSK3B pIC50 (converted)
Chain of GSK3β (h) (P49841 whole entry): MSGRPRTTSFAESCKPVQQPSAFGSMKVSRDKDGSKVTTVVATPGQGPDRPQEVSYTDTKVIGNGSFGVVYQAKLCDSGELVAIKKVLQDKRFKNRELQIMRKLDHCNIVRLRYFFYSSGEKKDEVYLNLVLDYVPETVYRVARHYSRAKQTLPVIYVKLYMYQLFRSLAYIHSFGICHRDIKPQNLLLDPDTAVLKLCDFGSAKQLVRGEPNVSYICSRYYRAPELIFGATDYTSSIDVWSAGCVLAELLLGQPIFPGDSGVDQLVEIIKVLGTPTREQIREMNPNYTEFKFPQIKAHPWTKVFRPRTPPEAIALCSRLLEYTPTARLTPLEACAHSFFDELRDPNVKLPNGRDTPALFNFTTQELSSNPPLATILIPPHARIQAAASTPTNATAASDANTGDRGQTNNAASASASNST
Description: as §1, §2, §3
In a final reaction volume of 30 μl, GSK3β (h) (1 μg/ml) is incubated with 25 mM Tris pH 7.4, 10 mM MgCl2, 1 mM DTT, 1 μM peptide Biotin-KRREILSRRPSYR-OH, 1 μM ATP and 2 nM [γ-^33P-ATP] (6.0 μCi/ml). After incubation of 60 minutes at room temperature, the reaction is stopped by addition of […] of stop solution containing 8.7 mM EDTA, BSA 0.17%, 0.17% Triton X-100, 6.25 mg/ml SPA beads (GE-healthcare). The plate is centriguged and read for Scintillation imaging on Leadseeker.

H1299 = assay: Cellular proliferation assay (Alamar blue), H1299; type: cell-based; conditions: H1299 cells, 72 hours with compound, 10% FCS; for IC50: Homo sapiens, NCI-H1299, 72 h, read-out: pIC50 H1299 (converted)
Description: as §4, §5

U87MG = assay: Cellular proliferation assay (Alamar blue), U87MG; type: cell-based; conditions: U87MG cells, 72 hours with compound, 10% FCS; for IC50: Homo sapiens, U-87 MG, 72 h, read-out: pIC50 U87MG (converted)
Description: as §4, §5

HCT-116 = assay: Cellular proliferation assay (Alamar blue), HCT-116; type: cell-based; conditions: HCT-116 cells, 72 hours with compound, 10% FCS; for IC50: Homo sapiens, HCT-116, 72 h, read-out: pIC50 HCT-116 (converted)
Description: as §4, §5

MDA/MB231 = assay: Cellular proliferation assay (Alamar blue), MDA/MB231; type: cell-based; conditions: MDA/MB231 cells, 72 hours with compound, 10% FCS; for IC50: Homo sapiens, MDA-MB-231, 72 h, read-out: pIC50 MDA/MB231 (converted)
Description: as §4, §5

Chain of PLK4 (h) (O00444 whole entry): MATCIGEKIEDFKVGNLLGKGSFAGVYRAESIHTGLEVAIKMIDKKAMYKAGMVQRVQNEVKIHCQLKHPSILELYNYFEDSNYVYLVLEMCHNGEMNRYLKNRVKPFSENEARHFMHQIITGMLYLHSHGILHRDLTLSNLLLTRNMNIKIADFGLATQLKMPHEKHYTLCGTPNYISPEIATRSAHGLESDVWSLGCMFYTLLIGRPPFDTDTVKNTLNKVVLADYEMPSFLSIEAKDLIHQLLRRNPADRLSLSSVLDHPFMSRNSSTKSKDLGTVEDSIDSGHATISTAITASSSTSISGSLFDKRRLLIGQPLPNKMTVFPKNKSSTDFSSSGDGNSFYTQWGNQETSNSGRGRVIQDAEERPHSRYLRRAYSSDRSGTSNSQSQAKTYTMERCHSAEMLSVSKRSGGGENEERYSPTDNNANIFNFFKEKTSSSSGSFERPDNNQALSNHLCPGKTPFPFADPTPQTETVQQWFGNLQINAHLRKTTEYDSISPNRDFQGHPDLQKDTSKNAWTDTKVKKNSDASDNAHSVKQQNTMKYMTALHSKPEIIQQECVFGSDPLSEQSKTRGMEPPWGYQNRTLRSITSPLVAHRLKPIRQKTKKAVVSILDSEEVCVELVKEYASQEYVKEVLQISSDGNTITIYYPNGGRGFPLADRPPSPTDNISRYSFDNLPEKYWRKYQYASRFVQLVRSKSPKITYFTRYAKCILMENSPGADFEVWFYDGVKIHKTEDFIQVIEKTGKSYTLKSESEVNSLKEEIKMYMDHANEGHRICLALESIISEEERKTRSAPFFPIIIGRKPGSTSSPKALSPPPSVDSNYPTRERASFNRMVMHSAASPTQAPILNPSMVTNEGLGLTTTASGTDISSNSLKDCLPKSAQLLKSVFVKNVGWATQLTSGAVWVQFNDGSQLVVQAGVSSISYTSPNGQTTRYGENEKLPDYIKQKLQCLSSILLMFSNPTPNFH

IC50 (PC-3) [µM] | IC50 (AuroraB (h)) | IC50 (A2780) [µM] | IC50 (GSK3β (h)) [µM] | IC50 (H1299) [µM] | IC50 (U87MG) [µM] | IC50 (HCT-116) [µM] | IC50 (PLK4 (h)) | IC50 (CDK1/CyclinB (h)) [µM] | Structure (SMILES) | PLK4 pIC50 (PLK4 (h)) | pIC50 PC-3 (PC-3) | AuroraB pIC50 (AuroraB (h)) | pIC50 A2780 (A2780) | CDK1 pIC50 (CDK1/CyclinB (h)) | GSK3B pIC50 (GSK3β (h)) | pIC50 H1299 (H1299) | pIC50 U87MG (U87MG) | pIC50 HCT-116 (HCT-116) | IC50 (MDA/MB231) [µM] | pIC50 MDA/MB231 (MDA/MB231)
– | – | – | – | – | – | – | – | – | CN1CCN(c2ccc3cc2OCCCC(=O)N(C)CCCNc2ncnc4c2C(=CN3)C(=O)N4)CC1 (mixture of isomers) [Compound 133] | 7.21 | 5.02 | 5.81 | 6.00 | 6.8 | 6.95 | 5.17 | 5.65 | 6.16 | – | –
6.46 | > 10 µM | 3.24 | 3.09 | > 10 | 2.69 | 3.63 | – | – | COc1nc2c3c(n1)NC(=O)/C3=C\Nc1ccc(Cl)c(c1)OCCCCC(=O)N(C)CCCN2 [Compound 111] | – | – | – | – | – | – | – | – | – | – | –
> 10 | 0.0513 µM | > 10 | 0.0631 | > 10 | – | 8.71 | 1.78 µM | > 10 | CN1CCCNc2ncnc3c2/C(=C/Nc2ccc(Cl)c(c2)OCCCCC1=O)C(=O)N3 [Compound 61] | – | – | – | – | – | – | – | – | – | > 10 | –
> 10 | 1.86 µM | > 10 | 4.07 | > 10 | > 10 | > 10 | – | – | COc1ccc2cc1OCC(=O)NCCN1CCN(CC1)c1ncnc3c1/C(=C/N2)C(=O)N3 [Compound 207] | – | – | – | – | – | – | – | – | – | > 10 | –
– | 5.01 µM | > 10 | 1.07 | > 10 | > 10 | > 10 | 3.39 µM | > 10 | CN1CCCNc2ncnc3c2/C(=C/Nc2cccc(c2)OCCCCCCC1=O)C(=O)N3 [Compound 69] | – | – | – | – | – | – | – | – | – | – | –
– | – | – | – | – | – | – | – | – | O=C1CCCOc2cccc(c2)NC=C2C(=O)Nc3ncnc(c32)NCCCN1 (mixture of isomers) [Compound 142] | 7.3 | 5.75 | 6.93 | <5 | 6.83 | 7.7 | 6.14 | 5.19 | – | – | <5
> 10 | – | > 10 | – | – | > 10 | – | > 10 µM | – | O=C1Nc2ncnc3c2/C1=C/Nc1ccc(Cl)c(c1)OCCCCCC(=O)N1CCN3CC1 [Compound 25] | – | – | – | – | – | – | – | – | – | > 10 | –
– | 3.39 µM and 3.55 µM and > 10 µM | 2.45 | – | > 10 | – | 2.4 | 1.66 µM and 2.09 µM and > 10 µM | – | COc1ccc2cc1OCC(=O)N[C@H](Cc1ccccc1)CN(C)CCNc1ncnc3c1/C(=C/N2)C(=O)N3 [Compound 191] | – | – | – | 5.47 | – | – | – | – | 5.55 and 5.77 | – | –

Structure (SMILES) | IC50 (PC-3) [µM] | IC50 (AuroraB (h)) | IC50 (A2780) [µM] | IC50 (GSK3β (h)) [µM] | IC50 (H1299) [µM] | IC50 (U87MG) [µM] | IC50 (HCT-116) [µM] | IC50 (PLK4 (h)) | IC50 (CDK1/CyclinB (h)) [µM] | PLK4 pIC50 (PLK4 (h)) | pIC50 PC-3 (PC-3) | AuroraB pIC50 (AuroraB (h)) | pIC50 A2780 (A2780) | CDK1 pIC50 (CDK1/CyclinB (h)) | GSK3B pIC50 (GSK3β (h)) | pIC50 H1299 (H1299) | pIC50 U87MG (U87MG) | pIC50 HCT-116 (HCT-116) | IC50 (MDA/MB231) [µM] | pIC50 MDA/MB231 (MDA/MB231)
CC(C)N1CCCCCCC(=O)N2CCN(CC2)c2ncnc3c2/C(=C/Nc2ccc(F)c(c2)C1)C(=O)N3 [Compound 29] | > 10 | – | > 10 | – | – | > 10 | > 10 | > 10 µM | – | – | – | – | – | – | – | – | – | – | > 10 | –

Source: patent publication US8338422B2, “Indolin-2-ones and aza-indolin-2-ones” (Janssen Pharmaceutica NV, priority 2007, dated 2012)
